Like-named read-outs stand apart in the source and are kept apart here.

What all share (assay type): in vivo
Test [1] concerns Setaria faberi (SETFA). Briefly: Test 1 glasshouse assay, post-emergence herbicidal activity. The following applies: 312 h, post-emergence (Example 1B Table 1), after 13 days, read-out: Percentage phytotoxicity SETFA. The gist of the method: (§1)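 Plants sprayed post-emergence after 8 days' growth with active ingredient in acetone/water (50:50) plus 0.5% Tween 20; glasshouse at 24/16° C day/night, 14 h light, 65% humidity. Visual percentage phytotoxicity scored 13 days later (100% = total damage, 0% = none).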

Test [2] concerns Zea mays (ZEAMX, corn/maize). Described as above. As to conditions: 312 h, post-emergence (Example 1B Table 1), after 13 days, read-out: Percentage phytotoxicity ZEAMX. The gist of the method:
as §1

For test [3], the system named is Alopecurus myosuroides (ALOMY). The test is described as above. As to conditions: 312 h, after 13 days, read-out: Percentage phytotoxicity ALOMY. The gist of the method:
(§2)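 Plants sprayed 8 days after sowing with active ingredient in acetone/water (50:50) containing 0.5% Tween 20, grown in glasshouse at 24/16°C day/night, 14 h light, 65% humidity. Phytotoxicity scored visually after 13 days as percentage damage (100% = total damage; 0% = none).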

The subject of test [4] is Echinochloa crus-galli (ECHCG). The description is as above. The following applies: 312 h, after 13 days, read-out: Percentage phytotoxicity ECHCG. In a few lines: as §2
Test [5] concerns Brachiaria plantaginea (BRAPL). Briefly: Test 2 glasshouse assay (IF50 formulation, X-77), pre-emergence herbicidal activity. As to conditions: Urochloa plantaginea, 480 h, 250 g/ha, 20DAA, read-out: Percentage phytotoxicity BRAPL. In a few lines: (§3)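 Sow in soil → 1 d (pre) or ~12 d (post) at 24/18 °C, 16 h light, 65% RH → spray IF50 (50 g/L stock) in 0.2% v/v X-77, concentration set by application rate → water twice daily → visual % phytotoxicity 20DAA (pre) or 15DAA (post).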

Test [6] deals with Digitaria sanguinalis (DIGSA). Described as above. As to conditions: 480 h, 250 g/ha, 20DAA, read-out: Percentage phytotoxicity DIGSA. The gist of the method: as §3
Test [7] deals with Echinochloa crus-galli (ECHCG). The description is as above. As to conditions: 480 h, 250 g/ha, 20DAA, read-out: Percentage phytotoxicity ECHCG. The gist of the method: as §3
Test [8] deals with Panicum miliaceum (PANMI). Described as above. The following applies: 480 h, 250 g/ha, 20DAA, read-out: Percentage phytotoxicity PANMI. In a few lines:
as §3

Test [9] concerns Setaria faberi (SETFA). The description is as above. The following applies: 480 h, 250 g/ha, 20DAA, read-out: Percentage phytotoxicity SETFA. In a few lines:
as §3

Test [10] has as its system Sorghum vulgare Pers. (SORVU). The test is described as above. The following applies: Sorghum bicolor, 480 h, 250 g/ha, 20DAA, read-out: Percentage phytotoxicity SORVU. In a few lines: as §3
The subject of test [11] is Alopecurus myosuroides (ALOMY). Nature of the test: Test 2 glasshouse assay (IF50 formulation, X-77), post-emergence herbicidal activity. The following applies: 360 h, 15 DAA, visual score, read-out: Post-emergence herbicidal activity (percentage phytotoxicity) ALOMY; for pest or weed control at 30 g/ha: application rate 30 g/ha; for pest or weed control at 250 g/ha: application rate 250 g/ha. The gist of the method:
(§4)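 Plants in soil pots were sprayed 1 day (pre-emergence) or ~12 days (post-emergence) after sowing with IF50 formulation diluted in 0.2% v/v X-77. Cool species were grown at 20/16 °C day/night, 16 h light, 65% humidity. Visual % phytotoxicity was scored at 20DAA (pre) or 15DAA (post).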

In another test the test system is Avena fatua (AVEFA). Described as above. The following applies: 360 h, 15 DAA, visual score, read-out: Post-emergence herbicidal activity (percentage phytotoxicity) AVEFA; for pest or weed control at 30 g/ha: application rate 30 g/ha; for pest or weed control at 250 g/ha: application rate 250 g/ha. In a few lines:
as §4

A further test relates to Lolium perenne (LOLPE). The test is described as above. As to conditions: 360 h, 15 DAA, visual score, read-out: Post-emergence herbicidal activity (percentage phytotoxicity) LOLPE; for pest or weed control at 30 g/ha: application rate 30 g/ha; for pest or weed control at 250 g/ha: application rate 250 g/ha. In a few lines: as §4
Setting [12] is: post-emergence (Example 1B Table 1).
Setting [13] is: post-emergence (Example 1B Table 2).

As for `C#CCC1CC(=O)C(c2c(C)cc(-c3ncc(Cl)cc3F)cc2C)C1=O` (centres unmarked) [Compound A3], the pest or weed control at 62.5 g/ha (in the test with Setaria faberi (SETFA) [1]; in test [2]; in test [3] (setting [12]); in [3] (setting [13]); in [4] (setting [12]); in test [4] (setting [13])) was 100% in each case. Besides, the pest or weed control at 250 g/ha (with Setaria faberi (SETFA) [1]; in test [2]; in test [3] (setting [12]); in [3] (setting [13]); in test [4] (setting [12]); in [4] (setting [13])) was 100% each time. The pest or weed control at 250 g/ha in test [5] was 90%; in test [6], 90%; in [7], 80%; in test [8], 80%; in the test on Setaria faberi (SETFA) [9], 80%; in test [10], 80%. In addition, the pest or weed control at 250 g/ha in test [11] turned out to be 100%; in the test with Avena fatua (AVEFA), 100%; with Lolium perenne (LOLPE), 90%. For the same compound, the pest or weed control at 30 g/ha in test [11] worked out at 80%; in the test with Avena fatua (AVEFA) it was 40%; with Lolium perenne (LOLPE), 30%.
For `C#CCC1CC(=O)C(c2c(C)cc(-c3ccc(Cl)cn3)cc2C)C1=O` (centres unmarked) [Compound A2], the pest or weed control at 62.5 g/ha in the test on Setaria faberi (SETFA) [1] was determined as 100%; in [2], 100%; in test [3] (setting [12]), 90%; in test [3] (setting [13]) it was 70%; in test [4] (setting [12]) it was 100%; in [4] (setting [13]), 90%. Further, the pest or weed control at 250 g/ha with Setaria faberi (SETFA) [1] was determined as 100%; in [2], 100%; in test [3] (setting [12]) it was 90%; in test [3] (setting [13]), 100%; in test [4] (setting [12]), 100%; in test [4] (setting [13]) it was 100%. Further, the pest or weed control at 250 g/ha in test [5] was 80%; in [6] it was 70%; in [7] it was 80%; in test [8] it was 100%; with Setaria faberi (SETFA) [9] it was 90%; in test [10], 80%. The pest or weed control at 250 g/ha in test [11] came out at 100%; in the test on Avena fatua (AVEFA), 90%; with Lolium perenne (LOLPE), 90%. The pest or weed control at 30 g/ha worked out at 20% in test [11], 60% in the test on Avena fatua (AVEFA) and 30% in the test on Lolium perenne (LOLPE).
For the compound `C#CCC1CC(=O)C(c2c(Cl)cc(-c3ccc(F)cc3)cc2OC)C1=O` (centres unmarked) [Compound A7], the pest or weed control at 30 g/ha came to 100% in the test with Setaria faberi (SETFA) [1]; 100% in test [2]; 70% in test [3] (setting [12]); 100% in [4] (setting [12]); 10% in [11]; 20% in the test on Avena fatua (AVEFA). In addition, in the test with Lolium perenne (LOLPE), the pest or weed control at 30 g/ha amounted to 30%. The pest or weed control at 250 g/ha with Setaria faberi (SETFA) [1] was determined as 100%; in [2] it was 100%; in [3] (setting [12]) it was 100%; in test [4] (setting [12]), 100%; in test [5] it was 90%; in [6], 100%. Further, the pest or weed control at 250 g/ha in test [7] was determined as 90%; in test [8], 100%; in the test on Setaria faberi (SETFA) [9] it was 90%; in [10] it was 90%; in test [11] it was 100%; with Avena fatua (AVEFA), 100%. Further, in the test with Lolium perenne (LOLPE), the pest or weed control at 250 g/ha is 80%.
With `C#CCC1CC(=O)C(c2c(Cl)cc(-c3ccc(F)c(F)c3)cc2OC)C1=O` (centres unmarked) [Compound A13], the pest or weed control at 30 g/ha in the test with Setaria faberi (SETFA) [1] was determined as 100%; in test [2], 100%; in test [3] (setting [12]), 90%; in test [4] (setting [12]), 100%; in test [11] it was 30%; with Avena fatua (AVEFA), 30%. Besides, in the test on Lolium perenne (LOLPE), the pest or weed control at 30 g/ha was 10%. For the same compound, the pest or weed control at 250 g/ha (in the test with Setaria faberi (SETFA) [1]; in test [2]; in test [3] (setting [12]); in [3] (setting [13]); in test [4] (setting [12]); in [4] (setting [13])) was 100% throughout. The pest or weed control at 250 g/ha (in [5]; in test [6]; in test [7]; in test [8]; in the test with Setaria faberi (SETFA) [9]; in [10]) was 100% throughout. Also, the pest or weed control at 62.5 g/ha in test [3] (setting [13]) and in test [4] (setting [13]) was 100% throughout. The figures for the pest or weed control at 125 g/ha (in test [11] (application rate 125 g/ha); in the test with Avena fatua (AVEFA) (application rate 125 g/ha); in the test on Lolium perenne (LOLPE) (application rate 125 g/ha)) were 100%, 80% and 80%, respectively.
